{"source": "patent US20040062848A1", "about": "“Lapactic agent” (priority 2002, published 2004)", "experiment": "Acute toxicity (LD50)", "settings": "in vivo", "data": [{"substance": "ε-polylysine hydrochloride", "values": [{"measurement": "acute toxicity in LD50", "value": "≥ 5000", "unit": "mg/kg"}]}]}
